Article PMC2680390 (Journal of medicinal chemistry, 2008)
Each block holds one molecule with its values, some of them ahead of it.

Legend:
[1] = molecular target: ERβ/SRC-3 coactivator interaction (Homo sapiens, UniProt Q92731); assay: TR-FRET CBI assay, ERβ-LBD / SRC-3-NRD; type: binding; conditions: for TR-FRET Ki ERβ: estradiol present, fluorescein-SRC-3-NRD
[2] = test system: HEC-1 cells; assay: CellTiter 96 AQueous One Solution Cell Proliferation Assay; type: cell-based; conditions: doses up to 20 μM
[3] = molecular target: ERβ (Homo sapiens, UniProt Q92731); assay: Preliminary cell-based reporter gene systems, ERβ; conditions: preliminary studies
[4] = molecular target: T1, ERα/SRC-3 coactivator interaction (Homo sapiens, UniProt P03372, C381S/C530S); assay: TR-FRET CBI assay, ERα-LBD / SRC-3-NRD; type: binding; conditions: 1 μM estradiol, fluorescein-SRC-3-NRD 50 nM; for Ki: TR-FRET Ki ERα
T1 sequence (P03372 311-547 C381S/C530S limits assumed): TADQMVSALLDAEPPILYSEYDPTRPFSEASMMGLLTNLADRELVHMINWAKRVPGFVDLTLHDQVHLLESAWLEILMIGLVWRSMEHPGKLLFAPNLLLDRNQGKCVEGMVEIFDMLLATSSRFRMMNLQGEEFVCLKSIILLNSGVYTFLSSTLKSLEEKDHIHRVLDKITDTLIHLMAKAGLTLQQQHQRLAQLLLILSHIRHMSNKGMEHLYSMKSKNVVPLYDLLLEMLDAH

[5] = molecular target: ERα coactivator binding; conditions: read-out: Ki by fluorescence polarization assay; FP assay; cited from earlier work
[6] = molecular target: T2, ERβ ligand-binding domain (site-specifically labeled terbium/streptavidin-biotin/ER-LBD construct) (site-specifically labeled with biotin; bound to streptavidin-terbium in the assay); assay: FRET or BRET
T2 chain: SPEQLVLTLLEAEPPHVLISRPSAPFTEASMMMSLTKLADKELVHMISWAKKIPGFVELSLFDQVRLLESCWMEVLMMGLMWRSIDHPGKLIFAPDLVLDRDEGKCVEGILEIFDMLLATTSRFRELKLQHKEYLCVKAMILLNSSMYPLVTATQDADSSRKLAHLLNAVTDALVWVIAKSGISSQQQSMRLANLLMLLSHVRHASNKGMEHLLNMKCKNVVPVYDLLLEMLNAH

ERβ, sequence (Q92731 whole entry, the tested form may be a part): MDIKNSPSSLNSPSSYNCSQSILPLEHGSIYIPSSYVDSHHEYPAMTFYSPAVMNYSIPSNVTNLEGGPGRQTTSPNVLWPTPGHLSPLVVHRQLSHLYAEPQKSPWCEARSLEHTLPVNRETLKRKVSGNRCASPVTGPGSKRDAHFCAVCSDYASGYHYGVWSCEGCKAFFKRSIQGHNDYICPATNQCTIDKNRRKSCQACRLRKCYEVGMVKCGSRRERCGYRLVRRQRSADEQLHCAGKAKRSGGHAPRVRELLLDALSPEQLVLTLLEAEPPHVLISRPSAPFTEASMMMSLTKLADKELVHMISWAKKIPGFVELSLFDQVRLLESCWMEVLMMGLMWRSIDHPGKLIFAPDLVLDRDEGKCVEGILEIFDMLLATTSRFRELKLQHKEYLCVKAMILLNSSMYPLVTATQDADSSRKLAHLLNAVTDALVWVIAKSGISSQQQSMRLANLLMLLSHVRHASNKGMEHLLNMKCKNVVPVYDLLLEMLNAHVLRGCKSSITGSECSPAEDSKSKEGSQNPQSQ

Ki [1]: 242 µM | TR-FRET Ki ERβ [1]: very modest affinity for ERβ
Molecule: CC(C)CNc1cc(/C=C/c2ccccc2)nc(NCC(C)C)n1 [Compound 2a, N,N'-diisobutyl-(6-styryl-pyrimidin-2,4-yl)-diamine]

Molecule: CC(C)CNc1cc(CCc2ccccc2)nc(NCC(C)C)n1 [Compound 3a]
Viable cell counts [2]: decreased significantly only at the highest doses of compound (20 μM) | Mechanism-based inhibition of ERβ in cell-based reporter gene systems [3]: no mechanism-based inhibition of ERβ

TR-FRET Ki ERα [4]: no activity for ERα | TR-FRET Ki ERβ [1]: very modest affinity for ERβ
Molecule: CC(C)CNc1nc(/C=C/c2ccccc2)cc(N(Cc2ccccc2)C(=O)OC(C)(C)C)n1 [Compound 8b]

Molecule: CC(C)CNc1cc(/C=C/c2ccccc2)nc(NCc2ccccc2)n1 [Compound 10a, N^2-Benzyl-N^4-isobutyl-6-styryl-pyrimidine-2,4-diamine]
Viable cell counts [2]: decreased significantly only at the highest doses of compound (20 μM)

Mechanism-based inhibition of ERβ in cell-based reporter gene systems [3]: no mechanism-based inhibition of ERβ
Molecule: CC(C)CCc1cc(NCC(C)C)nc(NCC(C)C)n1 [Compound 13b, 2,4-diisobutylamino-6-isoamylpyrimidine]
Ki [5]: 29 µM

Molecule: CC(C)CCc1cc(NCC(C)C)nc(NCc2ccccc2)n1 [Compound 18b]
Viable cell counts [2]: decreased significantly only at the highest doses of compound (20 μM)

Molecule: CC(C)CNc1cc(NCC(C)C)nc(NCC(C)C)n1 [Compound 25a, N,N',N''-Triisobutyl-pyrimidine-2,4,6-triamine]
Viable cell counts [2]: decreased significantly only at the highest doses of compound (20 μM) | TR-FRET Ki ERβ [1]: very modest affinity for ERβ

Ki [4]: 120 µM
Molecule: CC(C)CSc1cc(SCC(C)C)nc(SCC(C)C)n1 [Compound 25e, 2,4,6-Tris-isobutylsulfanyl-pyrimidine]

TR-FRET Ki ERα [4]: complete loss of activity | Ki [4]: > 1000 µM | Ki [1]: > 1000 µM
Molecule: CC(C)CNc1cc(Cl)nc(NCC(C)C)n1 [Compound 26, 2,4-diisobutylamino-6-chloropyrimidine]

Ki [4]: 7.3 µM | Mechanism-based inhibition of ERβ in cell-based reporter gene systems [3]: no mechanism-based inhibition of ERβ
Molecule: CC(C)CNc1cc(NCc2ccccc2)nc(NCC(C)C)n1 [Compound 27a]

TR-FRET Ki ERα [4]: lack of activity
Molecule: CC(C)CNc1cc(OCC(C)C)nc(NCC(C)C)n1 [Compound 27b]

TR-FRET Ki ERα [4]: complete loss of activity | Ki [4]: > 1000 µM | Ki [1]: > 1000 µM
Molecule: CC(C)CNc1ccnc(NCC(C)C)n1 [Compound 27d, 2,4-diisobutylamino-pyrimidine]

TR-FRET Ki ERα [4]: lack of activity
Molecule: CC(C)CNc1cc(S(=O)(=O)CC(C)C)nc(NCC(C)C)n1 [Compound 28]

TR-FRET Ki ERα [4]: activity is nearly fully restored
Molecule: CC(C)CCc1cc(NCC(C)C)nc(N(C)CC(C)C)n1 [Compound 31a]

TR-FRET Ki ERα [4]: inactive
Molecule: CC(C)CNc1cc(CCc2cccc3ccccc23)nc(N(C)CC(C)C)n1 [Compound 31c]

TR-FRET Ki ERα [4]: inactive
Molecule: CC(C)CNc1cc(CCc2ccccc2)nc(N(C)CC(C)C)n1 [Compound 32, N^2-methyl-N^2,N^4-diisobutyl-(6-phenethyl-pyrimidin-2,4-yl)-diamine]

TR-FRET Ki ERα [4]: no binding is observed
Molecule: CC(C)CCc1cc(N(C)CC(C)C)nc(NCC(C)C)n1 [Compound 34a]

Molecule: CC(C)CCc1cc(NCC(C)C)nc(OCC(C)C)n1 [Compound 37a, [2-Isobutoxy-6-(3-methyl-butyl)-pyrimidin-4-yl]-isobutylamine]
Viable cell counts [2]: decreased significantly only at the highest doses of compound (20 μM) | TR-FRET Ki ERα [4]: None of these O- or S-containing pyrimidines showed any inhibition

Molecule: CC(C)CCc1cc(NCC(C)C)nc(S(=O)(=O)CC(C)C)n1 [Compound 39, Isobutyl-[6-(3-methyl-butyl)-2-(2-methyl-propane-1-sulfonyl)-pyrimidin-4-yl]-amine]
TR-FRET Ki ERα [4]: None of these O- or S-containing pyrimidines showed any inhibition

Ki [6]: 0.066 µM
B1: unlabeled peptide containing the NR Box II (LXXLL motif) of SRC-1 (peptide)
chain: LTERHKILHRLLQEGSPSD
